For data set [1], the target named is T1, human Nav1.5 (WT) (Homo sapiens, UniProt Q14524). As to conditions: for Effect on peak-INa: over a range of concentrations.
Data set [2] deals with T1, human Nav1.5 (WT). As to the kind of experiment: cell-based.
The subject of data set [3] is cardiac sodium current (peak, total, late-INa) in sham cardiomyocytes. As to the kind of experiment: Whole-cell patch-clamp of sodium currents in cardiomyocytes from sham-operated mice. It is filed as cell-based, mouse. As to conditions: 10 µmol/L. The method, then: (§1) Male C57BL/6 N mice (7 weeks of age) were obtained from Charles River Canada (St. Foy, Quebec) and housed in a temperature and humidity-controlled animal facility with a 12:12-hour light-dark cycle for a minimum of 1 week before investigation. Animals were maintained on Rodent Chow #5001 and water ad libitum. Eight-week-old mice weighing 20 to 25 g were anesthetized with a cocktail of ketamine (100 mg/kg) and xylazine (20 mg/kg) intraperitoneal and preoperative analgesia (meloxicam, 1–2 mg/kg subcutaneous). Once animals reached a surgical plane, endotracheal intubation was performed using 22-G tubing. The endotracheal tube was then connected to a ventilator (Hugo-Sachs Electronik Mini-Vent, Harvard Apparatus Canada) and ventilated at 200 to 250 µl stroke volume and 150 breaths/min. Animals were then prepared for surgery (Liquid Tears applied to eyes; chest and throat shaved and washed and topical antiseptic utilized, then draped). A vertical skin incision was made from the suprasternal notch to midsternum, and then straight blunt scissors were used to cut the sternum to the third or fourth rib. Mini-Goldstein (FST) spreaders were used to retract the ribs. The thymus was blunt-dissected and the aortic arch visualized. The transverse arch was carefully dissected free of connective tissue, and a 6/0 silk tie was passed around the arch between the innominate and left carotid arteries. A double-blunted 27-G (0.4-mm) needle was then placed alongside the arch and the tie ligated. The blunted needle was then removed to standardize the stenosis. The thymus was gently replaced, and retractors removed. Two sutures were placed in the sternum, and the skin incision was closed using 6/0 Vicryl suture continuous pattern. Sham-operated animals underwent the same procedure without banding. Animals were removed from the ventilator and left to recover in a prewarmed cage with no bedding until the “righting reflex” was achieved, and checked initially every 5 to 10 minutes for the first 60 minutes, then regularly at 20 to 30 minutes intervals for the next 2 to 3 hours. […]
(In general: Patch clamp records ionic current or voltage across a cell membrane.)

Data set [4] concerns cardiac sodium current (peak, total, late-INa) in TAC cardiomyocytes. Nature of the data set: Whole-cell patch-clamp of sodium currents in cardiomyocytes from TAC (heart failure) mice. It is filed as cell-based, mouse. As to conditions: 10 µmol/L. The method, then: as §1
The target of another data set is T2, human Nav1.5 R1623Q (Homo sapiens, UniProt Q14524, R1623Q).
T2 construct: expressed in transfected cells; host or cells: HEK293T
As to the kind of experiment: Whole-cell patch-clamp of recombinant Nav1.5 LQT3 R1623Q mutant. It counts as cell-based. Conditions: 10 µmol/L. The method, then: (§2) The human Nav1.5 gene (SCN5A) in the pcDNA3.1(+)/C-(K)DYK vector (GenScript, Cat No. OHu18270D, USA) was cotransfected with a GFP vector into HEK293T cells using Lipofectamine 3000 (Invitrogen, Cat No. L3000001, USA). Transfected cells were seated on coverslips and used for functional studies within 48 to 72 hours. […] PCR products were cloned into XL-10 Gold Ultracompetent cells (Agilent, Cat No. 200315, USA), and DNA was isolated and purified by GeneElute Plasmid Miniprep kits (Sigma, Cat No. PLN350, USA). The presence of the desired mutations and the integrity of plasmids were then verified by DNA sequencing (The Applied Genomics Core, University of Alberta). The R1623Q LQT3 mutation in human Nav1.5 was constructed as described previously.[42]
(§3) Pipettes were pulled from borosilicate glass (World Precision Instruments, Sarasota, FL) using a P-87 micropipette puller (Sutter Instruments, Novato, CA), and the tips were fire-polished, yielding resistances of 3 to 4 MΩ. The pipette solution contained (in mmol/L) 130 CsCl, 5 NaCl, 5 TEA (tetra-ethyl ammonium chloride)-Cl, 2.5 HEPES, 1 EGTA, and 2 MgATP. The pH was adjusted to 7.2 with CsOH. The extracellular solution contained (in mmol/L) 140 NaCl, 10 HEPES, 1 CaCl2, 1.4 MgCl2, 5 KCl, and 5 glucose (pH adjusted to 7.4 with NaOH).

In a further data set the target is T3, human Nav1.5 ΔKPQ (Homo sapiens, UniProt Q14524, DEL1505-1507).
T3 construct: host or cells: HEK293T
As to the kind of experiment: Whole-cell patch-clamp of recombinant Nav1.5 LQT3 ΔKPQ mutant. Conditions: 10 µmol/L. It is filed as cell-based. The method, then:
as §2, §3

The test system of a further data set is mouse cardiomyocytes. As to the kind of experiment: Calcium transients (Fluo-4) in paced single mouse cardiac myocytes, veratridine-induced spontaneous events. It counts as cell-based. The method, then:
Cardiomyocytes were isolated from 3- to 6-month-old male C57Bl6N mice as described above and then loaded with 1 µmol/L Fluo-4 AM for 30 to 60 minutes at room temperature before imaging with an Olympus IX83 inverted microscope. The cells were perfused with a gravity controlled, multi-channel superfusion system at a flow rate of 1.5 mL/min. Fluorescence was recorded at 20 Hz through a UPLSAPO 20X objective and an Andor iXon Ultra 897 camera after excitation at 480 nm for 9.85 ms at 5% intensity of the X-cite 120 LED Boost Excelitas light source. Cardiomyocytes were field-stimulated at 1 Hz at a current value 10% above the threshold current required to elicit contraction using a current stimulator (Warner Instruments, SIU-102) equipped with platinum electrodes submerged in the recording bath. Cardiomyocytes were selected on the basis of their typical rod-shaped morphology, the absence of unpaced calcium events, and their consistent response to field stimulation. […] Regions of interest were selected such that the cardiomyocyte resided within the boundaries of the regions of interest in both its contracted and its relaxed state. The average fluorescence intensity for the regions of interest in every frame was then analyzed. Fifty-second segments of the fluorescence intensity trace in control and treated conditions from the same cardiomyocyte were obtained. Typically, these segments were the last 50 s during the >120 s superfusion of the chosen treatment condition.

The target in a further data set is T4, human NCX1.1 (Homo sapiens, UniProt P32418).
T4 construct: expressed in transfected cells; host or cells: HEK293T
Nature of the data set: Whole-cell patch-clamp of reverse-mode NCX1.1 current in HEK293T cells. Conditions: 1 µmol/L. It is filed as cell-based.
From the text: as §3

Another data set concerns NLRP3 inflammasome. Nature of the data set: Immunoblot of NLRP3 and TXNIP in isolated mouse hearts after ischemia-reperfusion (Langendorff).
In another data set the test system is isolated mouse hearts. Nature of the data set: Postischemic functional recovery (LVDP) of isolated Langendorff-perfused mouse hearts.
Where [5] appears, read: 1 µmol/L, 30 min ischemia, 40 min reperfusion.

Like-named read-outs stand apart in the source and are kept apart here.

By IC50 is commonly meant the midpoint of a concentration-inhibition curve. `CCOc1ccc(Cc2cc([C@@H]3O[C@H](CO)[C@@H](O)[C@H](O)[C@H]3O)ccc2Cl)cc1` [dapagliflozin]: the “Effect on peak-INa” value at human Nav1.5 (WT) [1] is listed as “little inhibitory effect”. At human Nav1.5 (WT) [2], this compound displayed a concentration for half-maximal inhibition (IC50) of 580 nM.
Turning to `OC[C@H]1O[C@@H](c2ccc(Cl)c(Cc3ccc(O[C@H]4CCOC4)cc3)c2)[C@H](O)[C@@H](O)[C@@H]1O` [empagliflozin], in data set [3], the “Effect on late-INa” value is “did not significantly alter”, the “Effect on peak current” value is “did not significantly alter” and the “Effect on total sodium current” value was “did not significantly alter”. Moreover, in data set [4], the “Effect on late-INa” value is given as “significantly reduced”, the “Effect on peak current” value is listed as “did not affect” and the “Effect on total current (area under the curve)” value is recorded as “significantly reduced”. Also, on human Nav1.5 R1623Q, the “Effect on late component of R1623Q current” value is reported as “significantly reduced” and the “Effect on peak component of R1623Q current” value was “significantly reduced”. At human Nav1.5 R1623Q (R1623Q currents), the “Activation V50 after drug” value is recorded as “–43.3 mV” and the “Inactivation V50 after drug” value is “–97.5 mV”. In addition, the “Effect on peak current of ΔKPQ” value at human Nav1.5 ΔKPQ (data not shown) is given as “did not inhibit”. Further, on human Nav1.5 ΔKPQ (≈2% before drug), the “Steady-state late-INa after drug” value is “≈ 1 % of peak current amplitude”. In addition, the “Reduction of the occurrence of veratridine-induced spontaneous transients” value with mouse cardiomyocytes (1 µmol/L, 20 nmol/L veratridine, 1 Hz field stimulation) turned out to be 46%. The “Effect on calcium transients in vehicle control-treated cardiomyocytes” value with mouse cardiomyocytes (no veratridine, data not shown) is recorded as “no observable effect”. The “Inhibition of reverse-mode NCX1.1” value at human NCX1.1 is recorded as “no significant inhibition”. Further, in the data set on NLRP3 inflammasome (setting [5]), the “Activation of TXNIP after ischemia-reperfusion” value is “complete prevention” and the “Activation of the NLRP3 inflammasome after ischemia-reperfusion” value was “complete prevention”. Moreover, the “Reperfusion functional recovery (LVDP)” value in the data set with isolated mouse hearts (setting [5]) is listed as “improved”. Also, on human Nav1.5 (WT) [1] (1 µmol/L, stimulation frequencies 0.2–3 Hz), the “Frequency dependence of peak- and late-INa inhibition” value is “no significant differences”. The “Effect on H2O2-induced late-INa in WT channels” value on human Nav1.5 (WT) [1] (10 µmol/L) is “significantly inhibited”. Moreover, the “Effect on H2O2-induced late-INa” value on human Nav1.5 (WT) [1] (1 and 10 µmol/L) is reported as “significantly inhibited”. Further, the “Half-activation voltage (V50) after drug” value at human Nav1.5 (WT) [1] (WT currents, 10 µmol/L) was “–42.4 mV”. Moreover, the “Effect on peak-INa” value at human Nav1.5 (WT) [1] was “little effect”. The compound also had an IC50 against human Nav1.5 (WT) [2] of 790 nM.
With `CCN(CC)CC(=O)Nc1c(C)cccc1C` [lidocaine], the “Effect on incidence of veratridine-induced spontaneous transients” value with mouse cardiomyocytes is “significantly reduced”.
On to `COc1ccccc1OCC(O)CN1CCN(CC(=O)Nc2c(C)cccc2C)CC1` (centres unmarked) [ranolazine], for which the “Effect on incidence of veratridine-induced spontaneous transients” value in the data set on mouse cardiomyocytes (10 µmol/L, 20 nmol/L veratridine) is recorded as “significantly reduced”.
As for `NC1=N[C@H](O)[C@H]2[C@H]3O[C@]4(O)O[C@@H]([C@@H](O)[C@@]2(N1)[C@@H]4O)[C@]3(O)CO` [tetrodotoxin], in the data set on NLRP3 inflammasome, the “Activation of TXNIP after ischemia-reperfusion” value is “complete prevention” and the “Activation of the NLRP3 inflammasome after ischemia-reperfusion” value is on record as “complete prevention”. Also, in the data set with isolated mouse hearts, the “Reperfusion functional recovery (LVDP)” value is “improved”. In addition, the “Sensitivity of H2O2-induced persistent inward current (late-INa)” value on human Nav1.5 (WT) [1] is “sensitive”.
Turning to `COc1ccc(C(=O)O[C@H]2CC[C@@]3(C)[C@@H]4CC[C@H]5[C@]6(O)C[C@H](O)[C@@]7(O)[C@@H](CN8C[C@@H](C)CC[C@H]8[C@@]7(C)O)[C@]6(O)C[C@@]53O[C@]24O)cc1OC` [veratridine], the “Induction of late-INa activity and spontaneous calcium transients” value in the data set on mouse cardiomyocytes (20 nmol/L, pilot experiments) was “induces late-INa activity”.
Regarding canagliflozin, the “Effect on peak-INa” value on human Nav1.5 (WT) [1] is recorded as “little inhibitory effect”. On human Nav1.5 (WT) [1] (read-out: IC50 for inhibition of H2O2-induced late-INa, recombinant human Nav1.5 in HEK293T cells, late-INa induced by 30 µmol/L H2O2), the IC50 is 1260 nM.

The record behind these values is article PMC8154177 (Circulation, 2021).
